Laboratory results taken from paper PMC7472354, “Enhanced Antimicrobial Activity of N-Terminal Derivatives of a Novel Brevinin-1 Peptide from The Skin Secretion of Odorrana schmackeri” (Toxins, 2020).
Entries after “also recorded” stand apart in the source; their conditions may differ. Where a SMILES comes first, the peptide text is derived from it.

What was measured:
horse red blood cells = conditions: 2 h
Protocol: The haemolytic activity of synthetic peptides was determined using the horse red blood cells that were extracted from the de-fibroblast whole horse blood (TCS Biosciences Ltd. Buckingham, UK). […] Briefly, the red blood cells were harvested and washed using PBS until all broken red blood cells were removed. Then, a 2% cell suspension was prepared using PBS. The peptide concentrations were set as antimicrobial activity assay and mixed with the red blood cells in the microcentrifuge tubes. After a 2 h-incubation at 37 °C, the tubes were centrifuged and the suspension was transferred into a clear 96 well plate. The absorbance of released haemoglobin in the suspension was detected at 570 nm by a plate reader. Besides, the red blood cells treated with PBS and 1% Triton X-100 were used as the negative and positive controls, respectively. […] The therapeutic index (TI) was further determined as below:(1) TI=HC50/product of n MICsn,

[1] = Circular dichroism, alpha-helical content (K2D3); type: physicochemical; conditions: CD, 50 µM peptide in 50% TFE in 10 mM NH4AC; helical content calculated with K2D3
Protocol: To further identify the secondary structure of purified peptides, they were dissolved in 10 mM ammonium acetate (NH4AC) and 50% trifluoroethanol (TFE) in 10 mM NH4AC, respectively, to achieve the concentration of 50 µM. […] The circular dichroism (CD) data of the peptides in TFE solution was submitted to the K2D3 webserver to analyse the α-helical content. Moreover, helical wheel projections of brevinin-1OS and its analogues were conducted (Figure A7) and the physicochemical properties of all peptides are summarized in Table 1.
Circular dichroism (CD) was employed to determine the secondary structure of the synthetic peptides in the different environment. The peptides were prepared in the aqueous solution, 10 mM NH4AC solution (pH 7.4), or the membrane mimicking solution, 50% TFE in 10 mM NH4AC, at a concentration of 50 µM. The proportion of helical content of each peptide in the 50% TFE in 10 mM NH4AC was calculated using the online server, K2D3 (http://cbdm-01.zdv.uni-mainz.de/~andrade/k2d3/). Physiochemical properties of the helical forming peptides were calculated online by Heliquest (http://heliquest.ipmc.cnrs.fr). Additionally, the secondary structures of peptides were predicted online by I-TASSER Predictions (https://zhanglab.ccmb.med.umich.edu/I-TASSER/).

MRSA [2] = assay: Treatment of MRSA-infected Galleria mellonella larvae; type: in vivo; conditions: 10 µL of 10^8 CFU/mL MRSA injected; peptide 25 or 50 mg/kg injected after 2 h; 30 larvae per group
Protocol: The in vivo study of antimicrobial activity of the peptides was evaluated using the larvae of Galleria mellonella, which was described in the previous study with minor modifications. The larvae of Galleria mellonella (250 ± 25 mg; Livefood UK Ltd., Rooks Bridge, UK) were selected. The MRSA culture was prepared the same way as the antimicrobial activity assay. Then, MRSA cells were collected and washed, and further diluted to 10^8 CFU/mL in the saline. Ten µL of MRSA suspension was injected to the larvae and placed in a petri dish. After 2 h, the MRSA infected larvae were administrated with 10 µL of peptides (25 mg/kg, 50 mg/kg) by injection. Saline and vancomycin (20 mg/kg) (Sigma-Aldrich, UK) were used as the negative control and positive control, respectively. Each sample group contained 10 larvae, and the experiment was repeated three times (30 larvae for each group in total). The survival curves were achieved using Prism (Version 6.0; GraphPad Software Inc., San Diego, CA, USA) and the log-rank test was employed to analyze the significance between the different treatments and the controls. * (p < 0.05), ** (p < 0.01) and *** (p < 0.001) represent statistical significance.

MRSA [3] = assay: Time-killing assay; type: cell-based, Staphylococcus aureus; conditions: peptide at 4 × MIC; colony counts on MHA; three independent experiments
Protocol: The time-killing assays were employed to determine the killing kinetics of the peptides on the selected bacteria strains. The experiment was performed as described previously. In brief, the bacteria culture was prepared the same way as the antimicrobial activity assay. A bacteria suspension (OD600 = 0.1) was mixed with the peptides at the concentration of their corresponding MICs and 4 × MICs. At different time intervals, 10 µL of aliquots of each sample was transferred into a clean tube and a series of 10-fold dilution was prepared in PBS. A volume of 100 µL of diluted bacteria suspension was spread on an MHA plate, and the number of the bacterial colonies that were formed after an overnight-incubation at 37 °C. The bacteria cultured without any treatment was employed as the negative (growth) control. Three experiments were run in triplicate.

MRSA [4] = assay: Skin disinfection test, pig skin model; set-up: species or system Staphylococcus aureus; conditions: 10 µL peptide at 1 × MIC on MRSA-inoculated pig skin wound, 37 °C, 4 days; SEM
Protocol: Specifically, pig skin was sterilized before using. The pig skins were cut into small pieces, and then, a rectangular groove was cut using a skin graft. 100 µL of logarithmic MRSA solution was inoculated on the wound, followed by incubating at 37 °C for 30 min. […] The pictures of wounds were captured by the digital camera after washing thrice with PBS, fixed with 2.5% (w/v) glutaraldehyde and dehydrated with a graded ethanol series. Finally, the MRSA cells which had attached to the wounded pig skin were visualized by SEM (Hitachi S-4800, Tokyo, Japan).

Structure (SMILES)	HC50 (concentration causing 50% haemolysis of the red blood cells) (horse red blood cells)	α-Helicity [1]	mortality of MRSA-infected larvae (MRSA [2])	time to complete killing of MRSA (MRSA [3])	MRSA on infected pig skin wound after treatment (MRSA [4])
CC(C)C[C@H](NC(=O)[C@H](C)NC(=O)[C@H](Cc1c[nH]c2ccccc12)NC(=O)[C@H](CCCCN)NC(=O)[C@H](CC(C)C)NC(=O)[C@@H](N)Cc1ccccc1)C(=O)N[C@@H](CCCCN)C(=O)N[C@H](C(=O)N[C@@H](C)C(=O)N[C@@H](C)C(=O)N[C@@H](CCCCN)C(N)=O)C(C)C [OSd] (H-FLKWALKVAAK-NH2)	>512 µM	–	–	–	–
CC(C)C[C@H](NC(=O)[C@H](C)NC(=O)[C@H](Cc1c[nH]c2ccccc12)NC(=O)[C@H](CCCCN)NC(=O)[C@@H]1CCCN1C(=O)[C@H](CC(C)C)NC(=O)[C@@H](N)Cc1ccccc1)C(=O)N[C@@H](CCCCN)C(=O)N[C@@H](Cc1c[nH]c2ccccc12)C(=O)N[C@@H](C)C(=O)N[C@@H](C)C(=O)N[C@@H](CCCCN)C(N)=O [OSf] (H-FLPKWALKWAAK-NH2; N-terminus assumed)	–	34.8%	dramatically decreased the mortality; also recorded: reduced the mortality	≤ 45 min	almost eradicated
